According to ChEMBL document CHEMBL1133327, “4-Thiazolidinones: novel inhibitors of the bacterial enzyme MurB” (Bioorg Med Chem Lett, 2000):

Biological target: not listed separately
Assay: Compound was tested for in vitro inhibitory activity against the bacterial enzyme UDP-N-acetylmuramate dehydrogenase; call rule not given here

Compound	IC50
CCCC[C@H](C(=O)O)N1C(=O)CSC1c1cccc(Oc2ccc(C(C)(C)C)cc2)c1 (stereo partly specified)	7.7 µM
CCCC[C@@H](C(=O)O)N1C(=O)C(C)SC1c1cccc(Oc2ccc(C(C)(C)C)cc2)c1 (stereo partly specified)	14 µM
CCCC[C@@H](C(=O)O)N1C(=O)CSC1c1cccc(Oc2ccc(C(C)(C)C)cc2)c1 (stereo partly specified)	28.4 µM
CCCC[C@H](C(=O)O)N1C(=O)C(C)SC1c1cccc(Oc2ccc(C(C)(C)C)cc2)c1 (single isomer, unassigned)	10 µM

Further lines, results first:

IC50	Compound
7.7 µM	CCCC[C@H](C(=O)O)N1C(=O)C(CC(=O)NNc2ccccc2)SC1c1cccc(Oc2ccc(C(C)(C)C)cc2)c1 (stereo partly specified)
11 µM	CCCC[C@@H](C(=O)O)N1C(=O)C(CC(=O)NNc2ccccc2)SC1c1cccc(Oc2ccc(C(C)(C)C)cc2)c1 (stereo partly specified)

Biological target: T1, UDP-N-acetylenolpyruvoylglucosamine reductase (Escherichia coli K-12, UniProt P08373)
T1 sequence (P08373 whole entry): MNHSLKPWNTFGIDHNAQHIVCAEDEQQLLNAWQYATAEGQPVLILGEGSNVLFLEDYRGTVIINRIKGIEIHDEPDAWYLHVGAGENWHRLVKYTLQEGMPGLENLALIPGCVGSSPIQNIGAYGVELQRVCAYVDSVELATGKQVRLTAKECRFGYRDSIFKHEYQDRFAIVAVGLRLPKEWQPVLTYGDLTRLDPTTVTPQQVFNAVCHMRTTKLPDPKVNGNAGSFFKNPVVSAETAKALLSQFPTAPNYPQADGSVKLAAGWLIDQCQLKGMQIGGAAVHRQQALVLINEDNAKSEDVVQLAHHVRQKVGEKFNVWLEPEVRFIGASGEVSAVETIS
Assay: Inhibition of bacterial enzyme UDP-N-acetylmuramate dehydrogenase

Compound	IC50
CC1SC(c2cccc(Oc3ccc(C(C)(C)C)cc3)c2)N([C@@H](Cc2ccccc2)C(=O)O)C1=O (stereo partly specified)	Not Active
CC1SC(c2cccc(Oc3ccc(C(C)(C)C)cc3)c2)N([C@@H](CC(=O)O)C(=O)O)C1=O (stereo partly specified)	Not Active
CC1SC(c2cccc(Oc3ccc(C(C)(C)C)cc3)c2)N([C@@H](CO)C(=O)O)C1=O (stereo partly specified)	Not Active
CC(C)(C)c1ccc(Oc2cccc(C3SCC(=O)N3[C@@H](CC(=O)O)C(=O)O)c2)cc1 (stereo partly specified)	Not Active
CC(C)(C)c1ccc(Oc2cccc(C3SCC(=O)N3[C@@H](CO)C(=O)O)c2)cc1 (stereo partly specified)	Not Active
CC1SC(c2cccc(Oc3ccc(C(C)(C)C)cc3)c2)N(CC(=O)O)C1=O (stereo unspecified)	Not Active
CC(C)(C)c1ccc(Oc2cccc(C3SCC(=O)N3[C@@H](CCCN)C(=O)O)c2)cc1 (stereo partly specified)	Not Active
CC(C)(C)c1ccc(Oc2cccc(C3SCC(=O)N3CC(=O)O)c2)cc1 (stereo unspecified)	Not Active
CC(C)(C)c1ccc(Oc2cccc(C3SCC(=O)N3[C@@H](Cc3ccccc3)C(=O)O)c2)cc1 (stereo partly specified)	Not Active
CC1SC(c2cccc(Oc3ccc(C(C)(C)C)cc3)c2)N([C@@H](CCCN)C(=O)O)C1=O (stereo partly specified)	Not Active

The next lines start with the values.

IC50	Compound
Not Active	CC(C)(C)c1ccc(Oc2cccc(C3SC(CC(=O)NNc4ccccc4)C(=O)N3CC(=O)O)c2)cc1 (stereo unspecified)
Not Active	CC(C)(C)c1ccc(Oc2cccc(C3SC(CC(=O)NNc4ccccc4)C(=O)N3[C@@H](CCCN)C(=O)O)c2)cc1 (stereo partly specified)
Not Active	CC(C)(C)c1ccc(Oc2cccc(C3SC(CC(=O)NNc4ccccc4)C(=O)N3[C@@H](CC(=O)O)C(=O)O)c2)cc1 (stereo partly specified)
Not Active	CC(C)(C)c1ccc(Oc2cccc(C3SC(CC(=O)NNc4ccccc4)C(=O)N3[C@@H](CO)C(=O)O)c2)cc1 (stereo partly specified)
Not Active	CC(C)(C)c1ccc(Oc2cccc(C3SC(CC(=O)NNc4ccccc4)C(=O)N3[C@@H](Cc3ccccc3)C(=O)O)c2)cc1 (stereo partly specified)
